Measurements reported in US20230217875A1, “IN VITRO EMBRYO RESCUE” (priority 2020, published 2023).

Tests used:
[1] = test system: Hybrid embryos of Capsella (Capsella rubella×Capsella grandiflora); assay: in vitro embryo rescue of interspecies hybrids, embryo survival; type: cell-based; conditions: for effect on embryo survival: MS medium supplemented with the sugar (FIG. 2A); for embryo appearance and growth: MS medium supplemented with the sugar, majority of embryos (FIGS. 2C-2H)
Experimental: (§1) Seeds of Arabidopsis and Capsella were surface sterilized (5% sodium hypochlorite, 0.05% Triton X-100) for 10 min, washed three times in sterile ddH2O and then plated on half Murashige and Skoog (MS) medium, i.e., MS medium as defined below but half the concentration of the included ingredients. After stratification for 3 day at 4° C., plants were grown in a growth room under long-day photoperiod (16 hours light and 8 hours darkness) at 22° C. Eight-day-old seedlings were transferred to soil and plants were grown in a growth room at 60% humidity and daily cycles of 16 hours light at 22° C. and 8 hours darkness at 18° C. For crosses, designated female flower buds were emasculated, and the pistils hand-pollinated at 2 days after emasculation.
(§2) • 70% Ethanol; • Sterilizing solution (5% sodium hypochlorite+0.01% (v/v) of Triton X-100 or TWEEN® 20); • Autoclaved water; • Murashige & Skoog (MS) medium (Murashige and Skoog 1962): MS basal salt mixture 4.4 g/L, 0.7% plant agar, pH 5.8 and vitamins (glycine 2 mg/I, myo-inositol 100 mg/I, nicotinic acid 0.5 mg/I, pyridoxine HCl 0.5 mg/I and thiamine HCl 0.1 mg/I); • Nitsch medium (Nitsch & Nitsch 1969): basal salt mixture 2.1 g/L, 0.7% plant agar, pH 5.8 and vitamins (biotin 0.05 mg/I, folic acid 0.5 mg/I, glycine 2 mg/I, myo-inositol 100 mg/I, nicotinic acid 5 mg/I, pyridoxine HCl 0.5 mg/I and thiamine HCl 0.5 mg/I);
(§3) Triploid Arabidopsis seeds were derived from crossing diploid Arabidopsis females with tetraploid Arabidopsis pollen donors. Interspecific hybrid Capsella seeds were derived from crossing Capsella rubella females with Capsella grandiflora pollen donors. Hybrid embryos were isolated at the torpedo stage, at around 8 to 9 days after pollination (DAP) for Arabidopsis and 9 to 10 DAP for Capsella.
(§4) Under a sterile hood, the siliques of the crosses were incubated for 30 s in 70% ethanol, 30 s in sterilizing solution and 30 s in sterile water. The siliques were placed on MS medium supplemented with 3% (w/v) trehalose overlaid with a filter paper and several drops of sterile liquid MS medium were added on the silique. Under a dissection microscope, the silique was opened with fine needles, and all seeds were transferred on the wet filter paper. The embryos were gently dissected and placed on the filter paper. During the dissection, the embryos and seeds should not become desiccated. The plates were sealed with Millipore tape and incubated under long-day photoperiod (16 hours light and 8 hours darkness) at 22° C.
(§5) After 5-7 days culture on MS medium with trehalose for Arabidopsis or 7-10 days for Capsella, viable embryos could be recognized by their green color and increased size that corresponded to the size of embryos at the bent cotyledon stage (FIG. 1J). Viable embryos were then transferred to Nitsch medium containing lower concentrations of trehalose, 1.5% (w/v) for Arabidopsis, 3% (w/v) for Capsella. Embryos were transferred from MS medium to Nitsch medium after two weeks. Transfer to Nitsch medium reduced vitrification, which is a frequently occurring phenomenon in tissue-cultured plants causing excessive hydration of tissues and reducing survival rate. Continued growth on MS medium for 3 weeks caused vitrification in Arabidopsis and Capsella seedlings (FIGS. 1L, 2I), but this phenomenon was suppressed by transfer to Nitsch medium (FIGS. 1M, 2J). After about two weeks of incubation, the initiation of roots could be observed (FIG. 1K) and the plantlets could be transferred to soil and continued to grow under long-day photoperiod (16 h light/8 h dark) at 22° C. in a growth room.
To rescue interspecific hybrids of Capsella, the protocol was the same as above for A. thaliana but with minor changes for the trehalose concentration. Hybrid embryos of Capsella (Capsella rubella×Capsella grandiflora) were dissected at the torpedo stage under a stereomicroscope under sterile conditions on a laminar flow bench. […]

[2] = test system: rice triploid embryos; assay: rescue of triploid rice embryos, embryo survival; type: cell-based, Oryza sativa L. cv. Suitou nourin 8
Experimental: To obtain triploids of cultivated rice (Oryza sativa L. cv. Suitou nourin 8), diploid plants (JP9838) were emasculated and pollinated with pollen from tetraploid plants (JP7525). Triploid hybrid embryos were dissected under sterile conditions at 10-12 days after pollination (DAP) under a stereomicroscope. The isolated embryos were cultured in vitro on MS medium supplemented with 1.5% (w/v, 43.8 mM) trehalose together with sucrose (1.5%) and compared to MS medium supplemented with only sucrose (3%). […] The viable triploid embryos were transferred to MS medium containing lower concentrations of trehalose (0.75% w/v) together with 2.25% (w/v) sucrose for two weeks, until the initiation of roots could be observed (FIG. 3F). The plantlets were transferred to soil and their ploidy levels were validated by flow cytometry.
Cultivated rice (Oryza sativa L. cv. Suitou nourin 8, diploid, JP9838, and cv. Suitou nourin 8, tetraploid, JP7525) seeds were obtained from the National Institute of Agrobiological Sciences in Japan (http://www.gene.affrc.go.jp). Rice seeds were grown on soil and cultivated in a phytotron. Cultivating conditions were 14 h light and 10 h dark at 30° C./21° C. with a constant humidity of 80% and light intensity of 400 μmol per m^−2 s^−1. For crossing, designated diploid plants were emasculated and pollination was performed immediately after emasculation.
Under a sterile hood, immature triploid rice seeds at 10-12 DAP were dehusked using a pair of tweezers and sterilized for 2 min in 70% ethanol, followed by 15 min in 5% sodium hypochlorite with gentle mixing, 2 min in sterile water. The seeds were placed on MS medium supplemented with 1.5% (w/v) trehalose together with 1.5% (w/v) sucrose overlaid with a filter paper. Under a dissection microscope, the seed coat was removed with fine needles, and dissected embryos were transferred on the wet filter paper. During the dissection, the embryos should not become desiccated. The plates were sealed with Millipore tape and incubated under long-day photoperiod (16 hours light and 8 hours darkness) at 22° C. After 5-7 days of culture on MS medium with trehalose, viable embryos could be recognized by their light green color and increased size (FIG. 3E), compared to aborted embryos with dark brown color (FIG. 3D). Viable embryos were then transferred to MS medium containing lower concentrations of trehalose, 0.75% (w/v) together with 2.25% (w/v) sucrose. After about two weeks of incubation, the initiation of roots could be observed (FIG. 3F) and the plantlets could be transferred to soil and grows in a phytotron.

[3] = test system: Triploid Arabidopsis thaliana (Col-0) embryos; assay: in vitro embryo rescue of interploidy hybridization (Col 2x x Col 4x), embryo survival; type: cell-based; conditions: for embryo appearance and growth: MS medium supplemented with the sugar, majority of triploid embryos (FIGS. 1C-1H)
Experimental: as §1, §2, §3
as §4, with “The siliques were placed on MS medium supplemented with 3% (w/v) trehalose overlaid with a filter paper and several drops of sterile liquid MS medium were added on the silique.” left out
as §5, with “room. […]” for “room.”

[4] = MS medium with only sucrose (3%)

Compound	hybrid embryos rescued (survival rate) ([1]; MS medium supplemented with 3% (w/v) sugar, 14 days (FIG. 2A))	highest survival rate ([1]; plates containing 6% trehalose, 14 days (FIG. 2B))	embryos survived ([2]; MS medium with 1.5% (w/v) trehalose together with sucrose (1.5%), after one week of culture)	embryo appearance ([2]; MS medium with 1.5% trehalose together with 1.5% sucrose, after one week)	embryo survival rate ([3]; MS medium supplemented with 3% (w/v) sugar, embryos at torpedo stage, 14 days of in vitro culture (FIG. 1A))	highest survival rate ([3]; plates containing 2% (w/v) trehalose, 14 days (FIG. 1B))	effect on embryo survival [1]	embryo appearance and growth [1]	embryo appearance and growth [3]	embryo appearance and growth [2, 4]	embryos survived [2, 4]
OC[C@H]1O[C@H](O[C@H]2O[C@H](CO)[C@@H](O)[C@H](O)[C@H]2O)[C@H](O)[C@@H](O)[C@@H]1O [trehalose]	80%	over 90%	Around 30%	turning light green	over 70%	over 90%	–	–	–	–	–
O=C[C@H](O)[C@@H](O)[C@@H](O)[C@H](O)CO [galactose]	–	–	–	–	–	–	did not improve embryo survival	turned from light green to white and growth was arrested	turned from light green to white and growth was arrested	–	–
O=C(CO)[C@@H](O)[C@H](O)[C@H](O)CO [fructose]	–	–	–	–	–	–	did not improve embryo survival	turned from light green to white and growth was arrested	turned from light green to white and growth was arrested	–	–
OC[C@H]1O[C@@](CO)(O[C@H]2O[C@H](CO)[C@@H](O)[C@H](O)[C@H]2O)[C@@H](O)[C@@H]1O [sucrose]	–	–	–	–	–	–	did not improve embryo survival	turned from light green to white and growth was arrested	turned from light green to white and growth was arrested	arrested growth and turned dark brown	none
